Here are results for 19 molecules from patent US12552770B2, “Compounds for treating respiratory disease” (TMEM16A Limited, priority 2020, dated 2026).

Structures are written as SMILES.

Usually EC50 stands for the concentration needed to bring the measured effect to its halfway point.

This experiment addresses T1, human TMEM16A (TMEM16Aabc variant) (Homo sapiens, UniProt Q5XXA6, DEL476-501).
T1 sequence (Q5XXA6 with tags, fused parts or gaps isoform Q5XXA6-5 DEL539-564): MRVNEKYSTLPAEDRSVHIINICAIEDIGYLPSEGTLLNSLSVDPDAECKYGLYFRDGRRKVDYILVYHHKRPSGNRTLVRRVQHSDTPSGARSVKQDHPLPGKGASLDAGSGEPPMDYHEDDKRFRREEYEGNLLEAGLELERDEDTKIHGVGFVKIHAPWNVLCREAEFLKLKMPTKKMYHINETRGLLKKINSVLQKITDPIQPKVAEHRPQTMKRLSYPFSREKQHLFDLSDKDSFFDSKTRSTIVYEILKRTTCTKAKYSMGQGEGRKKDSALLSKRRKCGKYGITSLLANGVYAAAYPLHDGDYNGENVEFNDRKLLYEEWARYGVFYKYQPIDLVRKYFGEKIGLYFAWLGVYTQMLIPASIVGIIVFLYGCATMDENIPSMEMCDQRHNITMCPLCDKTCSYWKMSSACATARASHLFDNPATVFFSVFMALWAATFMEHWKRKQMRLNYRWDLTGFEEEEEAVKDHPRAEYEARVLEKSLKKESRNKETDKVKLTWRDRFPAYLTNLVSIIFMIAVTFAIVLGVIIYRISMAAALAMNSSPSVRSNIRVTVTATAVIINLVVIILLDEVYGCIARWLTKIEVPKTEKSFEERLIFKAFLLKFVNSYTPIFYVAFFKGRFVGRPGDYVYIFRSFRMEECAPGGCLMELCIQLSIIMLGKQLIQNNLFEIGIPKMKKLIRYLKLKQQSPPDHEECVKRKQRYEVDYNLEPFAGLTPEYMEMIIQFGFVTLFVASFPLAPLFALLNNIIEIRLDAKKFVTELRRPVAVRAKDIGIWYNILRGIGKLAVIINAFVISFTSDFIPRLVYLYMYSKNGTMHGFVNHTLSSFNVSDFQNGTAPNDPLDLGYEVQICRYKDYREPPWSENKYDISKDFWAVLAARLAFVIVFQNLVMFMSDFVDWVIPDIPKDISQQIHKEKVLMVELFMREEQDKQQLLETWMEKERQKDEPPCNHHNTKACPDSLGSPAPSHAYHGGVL
Kind of experiment: Automated whole-cell patch clamp (Qpatch) TMEM16A potentiator assay in recombinant cells. Type of experiment: cell-based. The following applies: FRT cells stably expressing human TMEM16A, intracellular calcium at EC20; for % Potentiation @ 3.33 μM Avg: 3.33 μM solution of test compound, percentage increase of baseline TMEM16A current, peak current at +70 mV; for EC50: calculated from cumulative concentration response curve, whole-cell patch clamp. The method, then: Automated Whole-Cell Patch Clamp Assay to Detect TMEM16A Activity in Recombinant Cells
Cell Culture and Preparation
Fisher rat thyroid (FRT) cells stably expressing human TMEM16A (TMEM16Aabc variant; Dr Luis Galietta, Insituto Giannina, Italy) were cultured in T-75 flasks in Hams F-12 media with Coon's modification (Sigma) supplemented with 10% (v/v) foetal bovine serum, penicillin-streptomycin (10,000 U/mL/10000 μg/mL), G-418 (750 μg/mL), L-glutamine (2 mM) and sodium bicarbonate solution (7.5% v/v). At ˜90% confluence cells were harvested for experiments by detachment with a 2:1 (v/v) mixture of Detachin (BMS Biotechnology) and 0.25% (w/v) trypsin-EDTA. Cells were diluted to a density of 3.5-4.5×10^6 cells/mL with media consisting of CHO-S-SFM II (Sigma), 25 mM HEPES (Sigma) and Soy bean trypsin inhibitor (Sigma).
Whole-Cell Patch Clamp Recording
FRT-TMEM16A cells were whole-cell patch clamped using an automated planar patch clamp system (Qpatch, Sophion). Briefly, once high resistance (GOhm) seals were established between the cells and the planar recording array the patch was ruptured using suction pulses to establish the whole-cell recording configuration of the patch clamp technique. The assay employed the following solutions (all reagents Sigma):
Intracellular solution (mM): N-methyl-D-glucamine 130, CaCl2 18.2, MgCl2 1, HEPES 10, EGTA 10, BAPTA 20, Mg-ATP 2, pH 7.25, 325 mOsm with sucrose.
Extracellular solution (mM): N-methyl-D-glucamine 130, CaCl2 2, MgCl2 1, HEPES 10, pH 7.3, 320 mOsm with sucrose.
The intracellular solution buffers intracellular calcium at levels required to give ˜20% activation of the maximal TMEM16A mediated current (EC20 for calcium ions). Cells were voltage clamped at a holding potential of −70 mV and a combined voltage step (to +70 mV)/ramp (−90 my to +90 mV) was applied at 0.05 Hz. After a period of current stabilisation test compounds, solubilised in 100% (v/v) DMSO and subsequently diluted into extracellular solution, were applied to generate a cumulative concentration response curve. Each concentration of test compound was incubated for 5 minutes before addition of the next concentration. After the final concentration was tested a supramaximal concentration of either a known active positive modulator or the TMEM16A inhibitor, CaCCinhA01 (Del La Fuente et al, 2008) was added to define the upper and lower limits of the assay.
Compound activity was quantified by measuring the increase in current upon compound addition and expressing this as a percentage increase of baseline TMEM16A current level. Percentage increases in current were determined for each concentration and the data plotted as a function of concentration using either the Qpatch software or Graphpad Prism v6.05 providing the concentration which gave 50% of its maximal effect (EC50) and maximum efficacy (percentage of baseline increase).
In FIG. 1, IBL equals baseline current, I[#1] equals the peak current during test compound concentration 1 incubation period and so on.
Peak TMEM16A current at +70 mV was plotted as a function of time over the assay period. Baseline current (IBL) was measured after a period of stabilisation. The increase in current for each compound addition was determined by taking the peak current during the incubation period and subtracting the current from the previous recording period and then expressing this as a percentage of the baseline current. For test compound concentration 1 in FIG. 1 this is:
For each additional concentration tested the increase in current was determined by subtracting the current from the previous incubation period and normalising the baseline value—for test concentration 2 in FIG. 1 this is:
The values for each test concentration were plotted as a cumulative function of concentration e.g. for test concentration two this would be the sum of the peak changes measured during concentration one plus concentration two.

As for `O=C(CC12CC3CC(CC(C3)C1)C2)Nc1ccc2[nH]c(CC3CCCCC3)nc2c1` [Example 1, 2-(1-Adamantyl)-N-[2-(cyclohexylmethyl)-1H-benzimidazol-5-yl]acetamide], the “% Potentiation @ 3.33 μM Avg” value stood at 157.3% and the EC50 was 338 nM.

Turning to `O=C(CC12CC3CC(CC(C3)C1)C2)Nc1ccc2[nH]c(CC3CCCCO3)nc2c1` (centres unmarked) [Example 1.1, 2-(1-Adamantyl)-N-[2-(tetrahydropyran-2-ylmethyl)-1H-benzimidazol-5-yl]acetamide], the “% Potentiation @ 3.33 μM Avg” value worked out at 100.5% and the EC50 is 1100 nM.

For the molecule `O=C(CC1C2CC3CC(C2)CC1C3)Nc1ccc2[nH]c(Cc3ccccc3)nc2c1` (centres unmarked) [Example 2, 2-(2-Adamantyl)-N-(2-benzyl-1H-benzimidazol-5-yl)acetamide], the “% Potentiation @ 3.33 μM Avg” value came to 183.6% and the EC50 was 268 nM.

Consider `O=C(CC1C2CC3CC(C2)CC1C3)Nc1ccc2[nH]c(CCc3ccccc3)nc2c1` (centres unmarked) [Example 2.1, 2-(2-Adamantyl)-N-[2-(2-phenylethyl)-1H-benzimidazol-5-yl]acetamide], for which the “% Potentiation @ 3.33 μM Avg” value worked out at 149.1% and the EC50 was 808 nM.

For `COC(c1ccccc1)c1nc2cc(NC(=O)CC3C4CC5CC(C4)CC3C5)ccc2[nH]1` (centres unmarked) [Example 2.2, 2-(2-Adamantyl)-N-[2-[methoxy(phenyl)methyl]-1H-benzimidazol-5-yl]acetamide], the “% Potentiation @ 3.33 μM Avg” value amounted to 194.2% and the EC50 is 651 nM.

Regarding `COc1ccccc1Cc1nc2cc(NC(=O)CC3C4CC5CC(C4)CC3C5)ccc2[nH]1` (centres unmarked) [Example 2.3, 2-(2-Adamantyl)-N-[2-[(2-methoxyphenyl)methyl]-1H-benzimidazol-5-yl]acetamide], the “% Potentiation @ 3.33 μM Avg” value came to 211.2% and the EC50 is 263 nM.

On to `CN[C@H](c1ccccc1)c1nc2cc(NC(=O)CC3C4CC5CC(C4)CC3C5)ccc2[nH]1` (stereo partly drawn) [Example 3, 2-(2-Adamantyl)-N-[2-[(R)-methylamino(phenyl)methyl]-1H-benzimidazol-5-yl]acetamide], for which the “% Potentiation @ 3.33 μM Avg” value is reported as 108.2% and the EC50 is 1640 nM.

`O=C(CC12CC3CC(CC(C3)C1)C2)Nc1ccc2[nH]c(Cc3cccnc3Cl)nc2c1` [Example 4, 2-(1-Adamantyl)-N-[2-[(2-chloro-3-pyridyl)methyl]-1H-benzimidazol-5-yl]acetamide]: the “% Potentiation @ 3.33 μM Avg” value came to 187.3% and the EC50 was 732 nM.

For the molecule `O=C(CC1C2CC3CC(C2)CC1C3)Nc1ccc2[nH]c(Cc3ccccc3O)nc2c1` (centres unmarked) [Example 5, 2-(2-Adamantyl)-N-[2-[(2-hydroxyphenyl)methyl]-1H-benzimidazol-5-yl]acetamide], the “% Potentiation @ 3.33 μM Avg” value came to 156.9% and the EC50 is 79 nM.

Regarding `O=C(CC1C2CC3CC(C2)CC1C3)Nc1ccc2[nH]c(Cc3ccc(O)cc3)nc2c1` (centres unmarked) [Example 5.1, 2-(2-Adamantyl)-N-[2-[(4-hydroxyphenyl)methyl]-1H-benzimidazol-5-yl]acetamide], the “% Potentiation @ 3.33 μM Avg” value was determined as 165.9% and the EC50 was 596 nM.

Consider `O=C(CC1C2CC3CC(C2)CC1C3)Nc1ccc2[nH]c(Cc3cc(Cl)ccc3O)nc2c1` (centres unmarked) [Example 5.2, 2-(2-Adamantyl)-N-[2-[(5-chloro-2-hydroxy-phenyl)methyl]-1H-benzimidazol-5-yl]acetamide], for which the “% Potentiation @ 3.33 μM Avg” value is reported as 204.2% and the concentration giving a half-maximal response (EC50) was 254 nM.

As to `O=C(CC12CC3CC(CC(C3)C1)C2)Nc1ccc2[nH]c(CNC(=O)OCC(F)(F)F)nc2c1` [Example 6, 2,2,2-Trifluoroethyl N-[[5-[[2-(1-adamantyl)acetyl]amino]-1H-benzimidazol-2-yl]methyl]carbamate], the “% Potentiation @ 3.33 μM Avg” value came to 246.3% and the EC50 was 1250 nM.

On to `Cc1noc(C)c1-c1cccc(Cc2nc3ccc(NC(=O)CC45CC6CC(CC(C6)C4)C5)cc3[nH]2)c1` [Example 7, 2-(1-Adamantyl)-N-[2-[[3-(3,5-dimethylisoxazol-4-yl)phenyl]methyl]-3H-benzimidazol-5-yl]acetamide], for which the “% Potentiation @ 3.33 μM Avg” value worked out at 136.5% and the EC50 was 1580 nM.

Consider `CC(C)(C)OC(=O)NCc1nc2cc(NC(=O)CC3C4CC5CC(C4)CC3C5)ccc2[nH]1` (centres unmarked) [Example 8, tert-Butyl N-[[5-[[2-(2-adamantyl)acetyl]amino]-1H-benzimidazol-2-yl]methyl]carbamate], for which the “% Potentiation @ 3.33 μM Avg” value is on record as 129.2% and the EC50 was 282 nM.

Regarding `O=C(CC1C2CC3CC(C2)CC1C3)Nc1ccc2[nH]c(OC3CCOC3)nc2c1` (centres unmarked) [Example 9, 2-(2-Adamantyl)-N-(2-tetrahydrofuran-3-yloxy-1H-benzimidazol-5-yl)acetamide], the “% Potentiation @ 3.33 μM Avg” value came out at 87.4% and the EC50 was 841 nM.

For the molecule `O=C(NCC1CCCCCC1)c1ccc2oc(Cc3ccccc3O)nc2c1` [Example 10, N-(Cycloheptylmethyl)-2-[(2-hydroxyphenyl)methyl]-1,3-benzoxazole-5-carboxamide], the “% Potentiation @ 3.33 μM Avg” value is 67.7% and the EC50 is 122 nM.

In the case of `Nc1c2ccc(NC(=O)CC34CC5CC(CC(C5)C3)C4)cc2nn1Cc1ccccc1O` [Example 11, 2-(1-Adamantyl)-N-[3-amino-2-[(2-hydroxyphenyl)methyl]indazol-6-yl]acetamide], the “% Potentiation @ 3.33 μM Avg” value stood at 122.7% and the EC50 was 98 nM.

For the molecule `CC(C)c1nc2cc(NC(=O)CC3CCCCC3)ccc2o1` [Example 12, 2-Cyclohexyl-N-(2-isopropyl-1,3-benzoxazol-5-yl)acetamide], the “% Potentiation @ 3.33 μM Avg” value is 44.6% and the EC50 is 3340 nM.

`O=C(NCC1CCCCCC1)c1ccc2cn(Cc3ccccc3O)nc2c1` [Example 13, N-(Cycloheptylmethyl)-2-[(2-hydroxyphenyl)methyl]indazole-6-carboxamide]: the “% Potentiation @ 3.33 μM Avg” value is listed as 96.6% and the EC50 was 198 nM.
